Assay results as given in US11427575B2, “Antitumor compound for activating JWA gene and degrading HER2, preparation method thereof, and application thereof” (SIMCERE PHARMACEUTICAL CO., LTD., priority 2019, dated 2022).

Tested on: promoter of JWA gene
Assay: Luciferase reporter gene under control of JWA gene promoter in HBE cells (high-throughput screening)
Format: cell-based, human
Conditions: 48 h
Source text: High-throughput screening (HTS) was used to identify the human bronchial epithelial (HBE) cells stably transfected with a DNA construct with a luciferase gene under control of a 2,000 bp long promoter of JWA gene.
FIG. 1 is a sequence containing the 2000 bp promoter sequence of JWA gene that was used for a luciferase reporter gene plasmid construction.

SMILES	fluorescence intensity of reporter gene (0.05 μg/mL)	fluorescence intensity of reporter gene (0.10 μg/mL)	fluorescence intensity of reporter gene (0.21 μg/mL)	fluorescence intensity of reporter gene (0.41 μg/mL)	fluorescence intensity of reporter gene (0.83 μg/mL)	fluorescence intensity of reporter gene (1.65 μg/mL)	fluorescence intensity of reporter gene (3.30 μg/mL)
COc1cc(OC)c2nc(Nc3nc4c(C(F)(F)F)cccc4s3)sc2c1 [JAC1017, 4,6-dimethoxyn-(4-(trifluoromethyl)benzo (d)thiazole-2-group) benzo (d) thiazole-2-amine]	12910.00	13086.67	14460.00	17188.00	22680.00	28406.00	37426.00
COc1ccc(OC)c2sc(Nc3nc4c(F)cccc4s3)nc12 [JAC1014, N-(4-fluorobenzoyl (d)thiazole-2-group)-4,7-dimethoxy benzozoyl (d) thiazole-2-amine]	13835.33	14254.00	15262.67	18680.00	22088.00	28702.00	37664.67
COc1cc(OC)c2nc(Nc3nc4c(F)cccc4s3)sc2c1 [JAC1015, N-(4-fluorobenzoyl (d)thiazole-2-group)-4,6-dimethoxy benzozoyl (d) thiazole-2-amine]	14335.33	15573.33	18260.67	22168.67	28162.67	30168.67	37663.33
COc1cccc2sc(Nc3nc4c(F)cc(F)cc4s3)nc12 [JAC1012, 4,6-difluoro-n-(4-methoxylbenzene (d)thiazole-2-group) benzene (d) thiazole-2-amine]	13448.67	13518.67	16205.00	19768.67	25237.33	33228.00	41139.33
COc1cccc2sc(Nc3nc4c(F)ccc(F)c4s3)nc12 [JAC1011, 4,7-difluoro-n-(4-methoxybenzo-thiazole-2-group) benzoylthiazole-2-amine]	13255.33	13553.33	15397.33	19835.00	25886.67	31413.33	39676.33
COc1cccc2sc(Nc3nc4c(C(F)(F)F)cccc4s3)nc12 [JAC1013, 4-methoxy-N-(4-(trifluoromethyl)benzo (d)thiazole-2-group) benzo (d) thiazole-2-amine]	13315.33	12346.00	14926.00	16036.67	20014.00	26261.67	35332.33
COc1ccc(OC)c2sc(Nc3nc4c(C(F)(F)F)cccc4s3)nc12 [JAC1016, 4,7-dimethoxyn-(4-(trifluoromethyl)benzene (d)thiazole-2-group) benzene (d) thiazole-2-amine]	14360.00	16238.00	19226.00	24518.00	28746.00	32253.33	36361.67
